Laboratory results from ChEMBL document CHEMBL1201862, “PubChem BioAssay data set” (2004).
Active and inactive are the calls of the source.

Columns and labels:
[1] = test system: Vero; assay: cells; format: functional; conditions: Chlorocebus sabaeus
[2] = Fluorescence-based cell-based high throughput dose response assay for inhibitors of the interaction of nucleotide-binding oligomerization domain containing 2 (NOD2) and the receptor-interacting serine-threonine kinase 2 (RIPK2).; format: functional; conditions: Homo sapiens
[3] = target: Aryl hydrocarbon receptor (Homo sapiens, UniProt P35869); conditions: Potency;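 also: confirmatory quantitative high-throughput screen measuring activation of the AhR signaling pathway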
Sequence of Aryl hydrocarbon receptor (P35869 whole entry): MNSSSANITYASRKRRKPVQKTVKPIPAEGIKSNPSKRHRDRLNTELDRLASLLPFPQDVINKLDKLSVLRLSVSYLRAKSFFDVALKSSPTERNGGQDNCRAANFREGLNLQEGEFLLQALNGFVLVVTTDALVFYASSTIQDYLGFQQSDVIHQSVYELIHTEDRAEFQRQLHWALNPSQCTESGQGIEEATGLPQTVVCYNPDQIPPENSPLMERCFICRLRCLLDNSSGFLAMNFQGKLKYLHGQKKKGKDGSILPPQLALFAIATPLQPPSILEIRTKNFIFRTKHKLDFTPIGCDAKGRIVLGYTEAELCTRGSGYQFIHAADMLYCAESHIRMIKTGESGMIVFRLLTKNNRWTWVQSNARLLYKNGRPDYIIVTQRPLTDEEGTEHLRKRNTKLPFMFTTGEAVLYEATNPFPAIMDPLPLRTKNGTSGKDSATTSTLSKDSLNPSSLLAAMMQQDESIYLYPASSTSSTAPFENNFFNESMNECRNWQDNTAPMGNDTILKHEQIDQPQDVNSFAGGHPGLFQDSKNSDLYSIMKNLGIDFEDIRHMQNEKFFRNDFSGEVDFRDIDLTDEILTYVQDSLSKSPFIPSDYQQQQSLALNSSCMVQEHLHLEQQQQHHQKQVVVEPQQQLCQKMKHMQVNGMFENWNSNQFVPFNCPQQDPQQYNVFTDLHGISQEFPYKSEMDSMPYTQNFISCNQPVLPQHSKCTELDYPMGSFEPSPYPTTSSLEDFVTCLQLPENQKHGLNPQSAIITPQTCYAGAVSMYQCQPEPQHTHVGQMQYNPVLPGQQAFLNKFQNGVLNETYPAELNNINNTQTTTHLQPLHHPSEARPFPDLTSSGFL

[4] = target: T1, Sentrin-specific protease 8 (Homo sapiens, UniProt Q96LD8); format: functional
T1 sequence (Q96LD8 whole entry): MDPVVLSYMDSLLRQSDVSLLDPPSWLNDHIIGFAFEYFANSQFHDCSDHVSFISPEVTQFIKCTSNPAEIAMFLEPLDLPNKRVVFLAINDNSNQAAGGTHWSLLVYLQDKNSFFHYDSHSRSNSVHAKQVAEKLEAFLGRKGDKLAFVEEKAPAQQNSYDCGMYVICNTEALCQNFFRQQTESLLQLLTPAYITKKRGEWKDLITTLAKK

[5] = target: T1, Sentrin-specific protease 8; format: functional; remark: listed apart in the source
[6] = target: T2, RNA-binding protein pos-1 (Caenorhabditis elegans, UniProt G5EF15); assay: disruptors of C. elegans POS-1 RNA interaction – biochemical, fluorescence polarization, dose response (AID 1964);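 also: purified POS-1 fused to maltose binding protein made in E. coli; potency of compounds blocking POS-1 binding to fluorescent RNA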
T2 sequence (G5EF15 whole entry): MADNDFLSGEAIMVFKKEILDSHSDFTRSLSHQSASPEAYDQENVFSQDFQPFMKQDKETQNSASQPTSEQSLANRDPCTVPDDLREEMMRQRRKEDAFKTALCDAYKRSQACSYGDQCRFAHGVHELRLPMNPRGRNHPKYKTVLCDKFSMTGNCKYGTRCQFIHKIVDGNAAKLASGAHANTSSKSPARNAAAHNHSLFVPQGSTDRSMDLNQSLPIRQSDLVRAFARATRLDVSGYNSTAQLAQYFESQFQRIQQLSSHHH

[7] = target: T3, Zinc finger protein mex-5 (Caenorhabditis elegans, UniProt Q9XUB2); assay: potency of MEX-5 RNA-binding blockers – biochemical, C. elegans, fluorescence polarization, dose response (AID 1960)
T3 sequence (Q9XUB2 whole entry): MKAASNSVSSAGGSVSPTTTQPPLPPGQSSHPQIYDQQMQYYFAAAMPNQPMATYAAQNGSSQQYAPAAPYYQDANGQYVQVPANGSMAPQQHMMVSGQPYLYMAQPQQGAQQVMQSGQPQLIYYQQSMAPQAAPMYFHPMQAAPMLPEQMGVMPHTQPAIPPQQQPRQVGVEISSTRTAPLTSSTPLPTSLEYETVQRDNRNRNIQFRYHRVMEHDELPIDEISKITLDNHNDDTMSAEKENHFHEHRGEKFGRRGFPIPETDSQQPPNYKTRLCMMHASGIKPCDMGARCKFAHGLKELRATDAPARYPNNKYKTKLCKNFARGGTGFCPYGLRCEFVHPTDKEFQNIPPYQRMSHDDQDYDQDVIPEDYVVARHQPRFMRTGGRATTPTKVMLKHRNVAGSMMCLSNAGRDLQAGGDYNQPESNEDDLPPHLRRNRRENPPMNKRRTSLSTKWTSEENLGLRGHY

[8] = target: Arf-GAP with SH3 domain, ANK repeat and PH domain-containing protein 1 (Homo sapiens, UniProt Q9ULH1); format: functional;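 also: biochemical fluorescence polarization dose–response screen measuring inhibition of ASAP1; ASAP1 GAP domain stimulating GTP hydrolysis by truncated human ARF1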
Sequence of Arf-GAP with SH3 domain, ANK repeat and PH domain-containing protein 1 (Q9ULH1 whole entry, the tested form may be a part): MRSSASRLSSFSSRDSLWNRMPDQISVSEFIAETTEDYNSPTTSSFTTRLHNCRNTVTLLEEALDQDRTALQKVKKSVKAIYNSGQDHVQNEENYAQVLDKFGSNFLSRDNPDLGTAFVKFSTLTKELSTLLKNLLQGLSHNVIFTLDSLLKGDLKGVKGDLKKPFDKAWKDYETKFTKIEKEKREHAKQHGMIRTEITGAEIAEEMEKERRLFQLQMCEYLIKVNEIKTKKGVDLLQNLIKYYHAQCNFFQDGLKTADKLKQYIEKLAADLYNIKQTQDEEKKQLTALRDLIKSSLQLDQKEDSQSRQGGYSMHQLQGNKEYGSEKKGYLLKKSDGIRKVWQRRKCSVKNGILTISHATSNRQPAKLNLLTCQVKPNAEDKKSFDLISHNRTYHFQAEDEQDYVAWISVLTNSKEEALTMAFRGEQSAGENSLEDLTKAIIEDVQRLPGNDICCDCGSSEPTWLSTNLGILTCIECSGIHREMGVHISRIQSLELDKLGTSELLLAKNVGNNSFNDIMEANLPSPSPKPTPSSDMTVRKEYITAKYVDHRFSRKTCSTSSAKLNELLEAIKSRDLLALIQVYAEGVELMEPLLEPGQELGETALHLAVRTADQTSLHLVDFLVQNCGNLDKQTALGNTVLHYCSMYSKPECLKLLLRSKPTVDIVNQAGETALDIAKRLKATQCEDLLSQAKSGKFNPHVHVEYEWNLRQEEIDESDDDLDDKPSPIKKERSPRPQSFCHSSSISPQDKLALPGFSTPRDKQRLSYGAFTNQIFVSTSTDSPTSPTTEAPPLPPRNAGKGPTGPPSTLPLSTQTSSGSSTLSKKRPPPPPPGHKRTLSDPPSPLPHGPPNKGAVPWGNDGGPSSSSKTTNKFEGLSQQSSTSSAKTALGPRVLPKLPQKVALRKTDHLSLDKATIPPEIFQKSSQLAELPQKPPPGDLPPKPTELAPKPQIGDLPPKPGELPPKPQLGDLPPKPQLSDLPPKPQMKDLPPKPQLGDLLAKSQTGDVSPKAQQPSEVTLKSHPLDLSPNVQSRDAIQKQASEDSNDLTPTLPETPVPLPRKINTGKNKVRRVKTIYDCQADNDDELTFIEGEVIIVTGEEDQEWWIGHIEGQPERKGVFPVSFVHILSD

[9] = target: Beta-lactamase (Pseudomonas aeruginosa, UniProt Q79MP6);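 also: biochemical dose-response test of metallo-beta-lactamase enzyme inhibition, read out by epi-absorbance; purified recombinant IMP-1 metallo-beta-lactamase with nitrocefin as substrate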
Sequence of Beta-lactamase (Pseudomonas aeruginosa, UniProt Q79MP6) (Q79MP6 whole entry): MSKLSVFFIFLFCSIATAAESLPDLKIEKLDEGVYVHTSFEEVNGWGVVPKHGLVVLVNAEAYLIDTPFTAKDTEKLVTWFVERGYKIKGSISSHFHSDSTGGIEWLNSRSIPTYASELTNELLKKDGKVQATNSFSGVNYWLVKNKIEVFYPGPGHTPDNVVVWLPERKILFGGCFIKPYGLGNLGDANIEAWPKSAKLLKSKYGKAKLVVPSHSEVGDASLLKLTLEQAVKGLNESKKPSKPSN

[10] = target: Beta-lactamase (Salmonella choleraesuis (strain SC-B67), UniProt Q5J463)
Sequence of Beta-lactamase (Salmonella choleraesuis (strain SC-B67), UniProt Q5J463) (Q5J463 whole entry): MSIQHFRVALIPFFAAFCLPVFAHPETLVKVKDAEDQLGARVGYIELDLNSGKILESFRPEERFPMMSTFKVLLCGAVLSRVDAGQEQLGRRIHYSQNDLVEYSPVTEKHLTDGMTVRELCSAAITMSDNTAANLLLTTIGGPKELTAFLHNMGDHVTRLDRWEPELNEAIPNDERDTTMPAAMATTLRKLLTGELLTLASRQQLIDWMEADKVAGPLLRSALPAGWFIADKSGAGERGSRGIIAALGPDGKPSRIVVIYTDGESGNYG

[11] = target: T4, Insulin-degrading enzyme (Homo sapiens, UniProt P14735); assay: recombinant IDE activation, cell-free – biochemical, fluorescence polarization, counter-screen for IDE activator project, dose response (AID 588681)
T4 sequence (P14735 whole entry): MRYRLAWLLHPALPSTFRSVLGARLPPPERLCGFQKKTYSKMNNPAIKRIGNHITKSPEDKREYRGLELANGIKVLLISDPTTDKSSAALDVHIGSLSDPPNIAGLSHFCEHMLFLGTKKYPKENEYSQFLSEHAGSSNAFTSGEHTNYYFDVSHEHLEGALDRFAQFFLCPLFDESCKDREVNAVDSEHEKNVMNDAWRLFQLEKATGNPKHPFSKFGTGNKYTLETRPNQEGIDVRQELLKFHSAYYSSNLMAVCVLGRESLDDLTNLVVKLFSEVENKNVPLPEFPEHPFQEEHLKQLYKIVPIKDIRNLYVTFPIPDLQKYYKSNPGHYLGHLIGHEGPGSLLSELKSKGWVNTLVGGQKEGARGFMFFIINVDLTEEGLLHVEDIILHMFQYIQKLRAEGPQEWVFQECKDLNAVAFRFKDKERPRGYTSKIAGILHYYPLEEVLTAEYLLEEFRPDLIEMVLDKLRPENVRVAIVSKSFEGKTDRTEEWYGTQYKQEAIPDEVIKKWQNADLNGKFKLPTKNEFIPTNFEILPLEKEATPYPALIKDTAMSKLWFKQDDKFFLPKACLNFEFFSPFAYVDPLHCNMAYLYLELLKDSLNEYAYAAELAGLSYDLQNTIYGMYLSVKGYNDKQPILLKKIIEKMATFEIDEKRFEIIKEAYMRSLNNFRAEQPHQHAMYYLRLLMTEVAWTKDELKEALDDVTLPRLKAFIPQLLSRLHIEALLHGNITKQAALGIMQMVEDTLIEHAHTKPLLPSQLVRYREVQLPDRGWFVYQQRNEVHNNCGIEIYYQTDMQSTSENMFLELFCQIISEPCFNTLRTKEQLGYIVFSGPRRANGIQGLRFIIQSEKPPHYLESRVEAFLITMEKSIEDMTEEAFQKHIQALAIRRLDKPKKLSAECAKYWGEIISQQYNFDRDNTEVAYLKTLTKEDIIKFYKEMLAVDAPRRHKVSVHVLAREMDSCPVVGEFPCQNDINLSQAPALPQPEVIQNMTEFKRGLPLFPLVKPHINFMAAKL

[12] = target: T4, Insulin-degrading enzyme; assay: cellular IDE activation of Abeta substrate cleavage – fluorescence polarization, HEK cells, dose response (AID 588439); format: functional, cell-based
[13] = test system: HEK293; assay: membrane integrity loss in HEK cells – cell-based, fluorescence, cytotoxicity control for IDE activator project, dose response (AID 588440); format: functional; conditions: Homo sapiens;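 also: cytotoxicity by LDH release measuring loss of membrane integrity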
[14] = test system: HEK293; assay: optical interference in Abeta FP readout, dose response, artefact control for IDE activator project, biochemical, fluorescence polarization (AID 588442); format: functional, cell-based; conditions: Homo sapiens
[15] = target: Broad substrate specificity ATP-binding cassette transporter ABCG2 (Homo sapiens, UniProt Q9UNQ0); assay: blockers of JC-1 export by ABCG2 – Ig-MXP3 cells, flow cytometry, dose response (AID 1690); format: functional
Sequence of Broad substrate specificity ATP-binding cassette transporter ABCG2 (Q9UNQ0 whole entry): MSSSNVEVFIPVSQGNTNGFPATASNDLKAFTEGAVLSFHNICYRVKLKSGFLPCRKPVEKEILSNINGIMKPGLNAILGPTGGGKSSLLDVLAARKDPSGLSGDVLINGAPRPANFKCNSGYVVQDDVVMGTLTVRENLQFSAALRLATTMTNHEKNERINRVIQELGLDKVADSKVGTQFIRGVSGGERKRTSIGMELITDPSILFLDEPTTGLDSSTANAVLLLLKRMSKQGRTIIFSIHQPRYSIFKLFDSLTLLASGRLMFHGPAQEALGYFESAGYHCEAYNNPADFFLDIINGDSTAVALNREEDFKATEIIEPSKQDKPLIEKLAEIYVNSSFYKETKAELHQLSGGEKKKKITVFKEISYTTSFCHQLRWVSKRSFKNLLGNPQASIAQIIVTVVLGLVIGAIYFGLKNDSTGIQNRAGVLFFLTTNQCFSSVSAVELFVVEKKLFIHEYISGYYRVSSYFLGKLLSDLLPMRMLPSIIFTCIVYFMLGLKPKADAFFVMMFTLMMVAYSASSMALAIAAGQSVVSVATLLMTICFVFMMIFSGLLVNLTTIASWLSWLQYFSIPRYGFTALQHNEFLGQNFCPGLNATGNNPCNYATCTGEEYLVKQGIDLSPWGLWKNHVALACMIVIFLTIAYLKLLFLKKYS

[16] = target: Mu-type opioid receptor (Homo sapiens, UniProt P35372); format: functional, cell-based;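 also: U2OS cells with beta-arrestin recruitment to OPRM1 by beta-gal complementation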
Sequence of Mu-type opioid receptor (P35372 whole entry): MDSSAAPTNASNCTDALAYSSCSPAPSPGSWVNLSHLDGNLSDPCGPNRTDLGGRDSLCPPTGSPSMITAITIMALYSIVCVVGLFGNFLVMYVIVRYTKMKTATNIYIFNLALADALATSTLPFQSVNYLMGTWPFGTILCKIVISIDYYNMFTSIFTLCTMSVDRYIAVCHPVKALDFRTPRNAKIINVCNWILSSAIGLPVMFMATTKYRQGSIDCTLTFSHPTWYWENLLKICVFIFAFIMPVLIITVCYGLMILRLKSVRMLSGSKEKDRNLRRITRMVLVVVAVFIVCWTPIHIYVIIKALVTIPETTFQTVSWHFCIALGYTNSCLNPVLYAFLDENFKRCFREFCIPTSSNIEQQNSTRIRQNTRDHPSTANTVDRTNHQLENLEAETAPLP

[17] = target: 5-hydroxytryptamine receptor 2A (Mus musculus, UniProt P35363); format: functional, cell-based;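 also: CHO-K1 cells with tagged receptor and beta-arrestin; agonist potency measured as compound-induced activation of the receptor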
Sequence of 5-hydroxytryptamine receptor 2A (P35363 whole entry): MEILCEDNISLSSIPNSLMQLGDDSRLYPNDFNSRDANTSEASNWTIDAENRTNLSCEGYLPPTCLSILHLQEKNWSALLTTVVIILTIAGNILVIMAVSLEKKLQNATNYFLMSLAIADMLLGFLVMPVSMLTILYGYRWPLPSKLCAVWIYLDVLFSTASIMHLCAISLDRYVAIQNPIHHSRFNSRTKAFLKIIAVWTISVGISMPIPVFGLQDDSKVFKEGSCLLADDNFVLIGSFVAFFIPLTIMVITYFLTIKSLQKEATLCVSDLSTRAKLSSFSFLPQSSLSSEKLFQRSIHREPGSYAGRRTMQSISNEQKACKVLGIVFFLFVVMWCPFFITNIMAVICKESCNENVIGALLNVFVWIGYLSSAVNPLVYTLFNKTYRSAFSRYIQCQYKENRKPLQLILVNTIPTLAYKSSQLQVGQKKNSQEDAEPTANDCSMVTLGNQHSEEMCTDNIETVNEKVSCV

O=C1Nc2ccccc2/C1=C\C(=O)c1ccccc1
CC50 [1]: > 25 µM (active)
IC50 [2]: 5 µM (active)

O=C=Nc1ccc(Cl)c(Cl)c1
AC50 [3]: 56.2 µM (inconclusive)

CCOc1cc(C(c2c(C)[nH][nH]c2=O)c2c(C)[nH][nH]c2=O)ccc1OS(=O)(=O)c1ccccc1
IC50 [4]: 20.9 µM (active)
IC50 [5]: 33.2 µM (active)

Cc1cc(N/C=C2/C(=O)N(c3ccc4c(c3)OCO4)C(=O)c3ccccc32)ccn1
EC50 [6]: 27.5 µM (active)
EC50 [7]: 188 µM (inconclusive)
IC50 [8]: 22.1 µM (inactive)

CCCCN(C)C1=CC2=CC(=C(C#N)C#N)CCC2CC1 (configuration not stated)
IC50 [9]: 5.07 µM (active)
IC50 [10]: 1.47 µM (active)
EC50 [11]: > 54.7 µM (inactive)
EC50 [12]: > 54.7 µM (inactive)
IC50 [13]: > 89.2 µM (inactive)
EC50 [14]: 1.55 µM (active)
EC50 [15]: 4.42 µM (active)

O=C(c1ccco1)N1CCN(CC2CC3C=CC2C3)CC1 (configuration not stated)
EC50 [16]: 92.4 µM (inactive)
EC50 [17]: 2.96 µM (active)
